Data reported in US12157713B2, “Conjugated oligoelectrolytes as antimicrobial agents” (Nanyang Technological University, priority 2018, dated 2024).

Columns and labels:
[1] = system: Cryptococcus neoformans var. grubii H99; ATCC 208821; assay: Single-dose growth inhibition, Cn; format: cell-based; settings: ATCC208821, 32 μg/mL single dose, n=2, read-out: Growth inhibition Cn
Experimental: (§1) Growth inhibition of C. albicans was determined by measuring the absorbance at 530 nm (OD530), while the growth inhibition of C. neoformans was determined by measuring the difference in absorbance between 600 and 570 nm (OD600-570), after the addition of resazurin (0.001 wt. % final concentration) and incubation at 35° C. for additional 2 hrs. The absorbance was measured using a Biotek Synergy HTX plate reader. The relative growth inhibition was calculated for each well, relative to that determined from a negative control (media only) and positive control (bacteria without inhibitors) on the same plate as references. A single dose of 32 μg/mL of COE (final concentration) was used for each test.
(§2) Percentage growth inhibition of an individual sample was calculated based on growth in a reference well determined from negative controls (media only) and positive controls (bacterial/fungal media without inhibitors). Negative inhibition values indicate that the growth rate (or OD600) is higher compared to the reference growth (bacteria/fungi only, set to 0% inhibition). The growth rates for all bacteria and fungi may vary at −/+10%, which were within the reported normal distribution of bacterial/fungal growth. Any significant variations (or outliers/hits) were identified by the modified Z-Score, and the active compounds were selected by a combination of inhibition values and Z-Score.
(§3) A M(i) value of >|2.5| (absolute) would classify the sample as outliers or hits. Active samples were denoted as compounds with inhibition values equal to or above 80% and absolute Z-Score above |2.5| for either replicate (n=2 on different plates). Partial active samples were denoted as compounds with inhibition values from 50% to <80%, or absolute Z-Score below |2.5|.

[2] = system: Pseudomonas aeruginosa ATCC 27853; assay: Single-dose growth inhibition, Pa; format: cell-based; settings: ATCC27853, 32 μg/mL single dose, n=2, read-out: Growth inhibition Pa
Experimental: (§4) Inhibition of bacterial growth was determined by measuring the absorbance at 600 nm (OD600), using a Tecan M1000 Pro monochromator plate reader. Growth inhibition was calculated for each well, relative to the reference growths determined from a negative control (media only) and positive control (bacteria without inhibitors) incubated in the same plate. A single dose of 32 μg/mL of COE (final concentration) was used for each test.
as §2, §3

[3] = system: Pseudomonas aeruginosa (PAO1) biofilm; assay: Anti-biofilm assay (MBEC plate, crystal violet); format: cell-based; settings: P. aeruginosa PAO1 biofilm, 1 hour challenge in M9GC
Experimental: Pseudomonas aeruginosa (PAO1) was grown in Luria-Bertani (LB) broth under shaking (200 rpm) at 37° C. for 16-18 hours. The overnight culture was diluted to 1:200 in M9GC media (M9 medium supplemented with glucose and casamino acids), and 200 μL of diluted culture was added to each well of MBEC plate (Innovotech, Canada). After incubating at 37° C. for 5 hours under shaking (200 rpm), biofilm was formed on the pegs of the MBEC plate. The pegs were then rinsed with 1× phosphate buffered saline (PBS) solution (200 μL per well), and exposed to a two-fold dilution series of COE in M9GC media (200 μL per well). The challenge plate was incubated at 37° C. for 1 hour under shaking (200 rpm), and then the pegs were washed using 200 μL PBS before being dipped into 180 μL 0.1 wt. % crystal violet aqueous solution. After incubating at room temperature for 15 minutes, the pegs were rinsed with PBS twice and transferred to a plate containing 200 μL absolute ethanol in each well for 15 minutes. The biofilm mass was quantified by measuring the absorption of crystal violet/ethanol solution at 550 nm. The minimum biofilm dispersal concentration (MBDC) values were determined as the lowest COE concentration at which biofilm attached on the peg was completely dispersed. The results were repeated in triplicate.

[4] = system: Staphylococcus aureus 25923; assay: MIC against S. aureus 25923; format: cell-based
Experimental: (§5) The respective minimum inhibition concentration (MIC) of each COE molecule was determined using a broth microdilution method. Briefly, COEs were diluted via a 2-fold dilution series in 100 μL of either Muller Hinton Broth (MHB) for E. coli and S. aureus or Brain Heart Infusion Broth (BHI) for E. faecalis in a 96-well plate to achieve the desired final concentration. Subsequently, each well was inoculated with 100 μL of 1×10^6 colony forming units (CFU) mL^−1 of the respective microorganism in MHB for E. coli or BHI for E. faecalis to achieve an inoculum density of 5×10^5 CFU mL^−1. The plates were then incubated at 37° C. with shaking (200 rpm) for 18 hrs. […] The results were obtained in triplicate.
The antimicrobial effects of COE-D62N and COE-D82N were also tested on the Gram-positive Staphylococcus aureus 25923 and Methicillin-resistant Staphylococcus aureus(MRSA BAA-40), in comparison with vancomycin (FIG. 5b).

[5] = system: Escherichia coli FDA control ATCC 25922; assay: Single-dose growth inhibition, Ec; format: cell-based; settings: ATCC25922, 32 μg/mL single dose, n=2, read-out: Growth inhibition Ec
Experimental: as §4, §2, §3

[6] = system: Staphylococcus aureus MRSA ATCC 43300; assay: Single-dose growth inhibition, Sa; format: cell-based; settings: 32 μg/mL single dose, n=2, read-out: Growth inhibition Sa
Experimental: as §4, §2, §3

[7] = system: E. coli K12; assay: MIC by broth microdilution against E. coli K12; format: cell-based; settings: Escherichia coli, K12; broth microdilution, MHB, 18 hrs; read-out: MIC against E. coli K12
Experimental: as §5
The MIC values of COE-D4, COE-D6 and COE-D8 against the reference strain E. coli K12, pathogenic E. coli UT189, and the Gram positive pathogen Enterococcus faecalis OG1RF were determined using a broth microdilution method as described in the general method above. The MICs for E. coli K12 were determined to be 128, 16, and 4 μg mL^−1 for COE-D4, COE-D6, and COE-D8, respectively (FIG. 5a). […] This is not surprising as these two organisms differ in the capsular polysaccharides that they expressed, which are known to hinder the uptake of antimicrobials and mitigate their potency (M. A. Campos, et al., Infect. Immun. 2004, 72, 7107-7114). A K-type capsid comprising α2-8-linked sialic acid is excreted by UT189 and is known to be an important virulence factor for this organism (C. Whitfield, et al., Mol. Microbiol. 1999, 31, 1307-1319; G. G. Anderson, et al., Infect. Immun. 2010, 78, 963-975).

[8] = system: Candida albicans ATCC 90028; assay: Single-dose growth inhibition, Ca; format: cell-based; settings: ATCC90028, 32 μg/mL single dose, n=2, read-out: Growth inhibition Ca
Experimental: as §1, §2, §3

[9] = system: Acinetobacter baumannii ATCC 19606; assay: Single-dose growth inhibition, Ab; format: cell-based; settings: ATCC19606, 32 μg/mL single dose, n=2, read-out: Growth inhibition Ab
Experimental: as §4, §2, §3

[10] = system: organism classes (Gram-negative, Gram-positive and fungi); assay: Single-dose screening summary by organism class; format: cell-based; settings: 32 μg/mL; 0 = no activity
Experimental: as §2
Z-Score analysis was carried out to investigate outliers or hits among the samples. The Z-Score was calculated based on the sample population using a modified Z-Score method which accounts for possible skewed sample population. The modified method uses median and MAD ([…]) instead of average and standard deviation, and a scaling factor (Iglewicz, B. & Hoaglin, D. C. Volume 16: How to Detect and Handle Outliers. The ASQC Basic Reference in Quality Control: Statistical Techniques, 1993). The equation to calculate the modified Z-Score value is as follow: […]
as §3

[11] = system: Klebsiella pneumoniae MDR ATCC 700603; assay: Single-dose growth inhibition, Kp; format: cell-based; settings: ATCC700603, 32 μg/mL single dose, n=2, read-out: Growth inhibition Kp
Experimental: as §4, §2, §3

[12] = system: E. faecalis; settings: literature (Tran et al. 2013); cited from earlier work
[13] = system: multidrug-resistant Gram-negative bacteria; settings: literature (Falagas et al. 2005); cited from earlier work

For `C[N+](C)(C)CC[N+](C)(C)CCCCCCOc1ccc(/C=C/c2ccc(/C=C/c3ccc(OCCCCCC[N+](C)(C)CC[N+](C)(C)C)cc3)cc2)cc1` [COE-T62], the inhibition at 32 µg/mL [1] was over 80%, the inhibition at 32 µg/mL [2] was under 50% and the “Minimum biofilm dispersal concentration” value [3] was 8 µg/mL. The MIC [4] was 2 µg/mL, the inhibition at 32 µg/mL [5] was over 80% and the inhibition at 32 µg/mL [6] was over 80%. It also gave an MIC [7] of 16 µg/mL, an inhibition at 32 µg/mL [8] of over 80% and an inhibition at 32 µg/mL [9] of under 50%. For the same compound, the “Activity: number of organism classes the compound has been found active against” value [10] was 3 and the inhibition at 32 µg/mL [11] was under 50%.
For `O=C(O)c1cn(C2CC2)c2cc(N3CCNCC3)c(F)cc2c1=O` [Ciprofloxacin], the “Minimum biofilm dispersal concentration” value [3] was over 512 µg/mL.
For `NC[C@H]1O[C@H](O[C@H]2[C@H](O)[C@@H](O[C@H]3O[C@H](CO)[C@@H](O)[C@H](N)[C@H]3O)[C@H](N)C[C@@H]2N)[C@H](N)C[C@@H]1O` [Tobramycin], the “Minimum biofilm dispersal concentration” value [3] was over 512 µg/mL.
In the case of `CCCCCCCCCC(=O)N[C@@H](Cc1c[nH]c2ccccc12)C(=O)N[C@H](CC(N)=O)C(=O)N[C@@H](CC(=O)O)C(=O)N[C@@H]1C(=O)NCC(=O)N[C@@H](CCCN)C(=O)N[C@@H](CC(=O)O)C(=O)N[C@H](C)C(=O)N[C@@H](CC(=O)O)C(=O)NCC(=O)N[C@H](CO)C(=O)N[C@@H]([C@H](C)CC(=O)O)C(=O)N[C@@H](CC(=O)c2ccccc2N)C(=O)O[C@@H]1C` [daptomycin], the “MIC against E. faecalis in brain heart infusion media” value [12] is given as “around 3 μg mL^−1”.
In the case of Colistin, the “Minimum biofilm dispersal concentration” value [3] is given as 4 µg/mL and the “MIC against multidrug-resistant Gram-negative bacteria (in general)” value [13] is given as at most 4 µg/mL.
In the case of Gentamicin, the “Minimum biofilm dispersal concentration” value [3] is reported as over 512 µg/mL.
